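Interpolation was linear, between the two tested concentrations surrounding the appropriate level; five concentrations were tested over 48 hours in 96-well plates. GI50 is the concentration that inhibits growth by half. At the TGI there is no net growth.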

Among the test systems are IGROV1 ovarian; HT29 colon; MOLT-4 leukemia; SN12C renal; DU-145 prostate; TK-10 renal; M14 melanoma; SK-MEL-5 melanoma; OVCAR-8 ovarian; NCI-H522 lung.
Test in all cases: DTP human tumour cell line panel, 48 h

For `COc1cccc(/C=C\C(=O)c2ccccc2)c1`, the GI50 (in general, the concentration that inhibits growth by half) with IGROV1 ovarian is 3.19 µM; in the assay with HT29 colon it was 3.65 µM; in the assay with MOLT-4 leukemia, 6.1 µM; in the assay with SN12C renal it was 8.97 µM; in the assay on DU-145 prostate it was 4.73 µM; in the assay with TK-10 renal, 13.7 µM. Besides, the GI50 in the assay with M14 melanoma is 11.7 µM; with SK-MEL-5 melanoma, 9.4 µM; in the assay with OVCAR-8 ovarian it was 7.83 µM; in the assay with NCI-H522 lung, 2.06 µM. For the same compound, the TGI – broadly, the concentration giving total growth inhibition – in the assay on IGROV1 ovarian was 21.2 µM; in the assay on HT29 colon, 17.5 µM; in the assay on MOLT-4 leukemia it was greater than 100 µM; with SN12C renal, 25.5 µM; with DU-145 prostate it was 20.5 µM; in the assay with TK-10 renal it was 30.4 µM. In addition, the TGI in the assay with M14 melanoma was 28.8 µM; in the assay with SK-MEL-5 melanoma, 24.8 µM; with OVCAR-8 ovarian it was 24.7 µM; in the assay with NCI-H522 lung, 4.62 µM.

As for `Cc1ccc(C)c(N2CCN(c3ccncc3N)CC2)c1`, the GI50 with IGROV1 ovarian was 23.9 µM; with HT29 colon, 11.2 µM; in the assay with MOLT-4 leukemia, 25.6 µM; in the assay on SN12C renal, 20.9 µM; in the assay with DU-145 prostate it was 17.9 µM; in the assay with TK-10 renal it was 16.7 µM. The GI50 with M14 melanoma was 23 µM; in the assay with SK-MEL-5 melanoma it was 11.7 µM; with OVCAR-8 ovarian it was 20.2 µM; in the assay with NCI-H522 lung, 9.97 µM. The TGI in the assay with IGROV1 ovarian was greater than 100 µM; with HT29 colon, 26.3 µM; with MOLT-4 leukemia, 91.2 µM; in the assay on SN12C renal, greater than 100 µM; in the assay on DU-145 prostate it was 64.8 µM; with TK-10 renal it was 49.8 µM. In addition, the TGI was 62.1 µM in the assay on M14 melanoma, 24.4 µM with SK-MEL-5 melanoma, greater than 100 µM with OVCAR-8 ovarian and 26.7 µM in the assay with NCI-H522 lung.

Turning to `Cc1[nH]c2c(C)c3c([nH]c4ccc(Cl)cc43)c(C)c2c(=O)c1C`, the TGI is greater than 65.5 µM in the assay with IGROV1 ovarian; 12.8 µM in the assay on HT29 colon; 8.44 µM with MOLT-4 leukemia; 15.1 µM in the assay on SN12C renal; greater than 100 µM with DU-145 prostate; 24.1 µM in the assay with TK-10 renal. Moreover, the TGI with M14 melanoma is greater than 100 µM; in the assay on SK-MEL-5 melanoma, 42.2 µM; in the assay on OVCAR-8 ovarian it was 17.7 µM; with NCI-H522 lung, 12.9 µM.

In the case of `CC/C(=C/c1ccc(OC)cc1)[N+](=O)[O-]`, the GI50 is 2.82 µM with IGROV1 ovarian; 2.71 µM in the assay on HT29 colon; 2.7 µM in the assay on MOLT-4 leukemia; 2.28 µM in the assay with SN12C renal; 2.17 µM with DU-145 prostate; 1.75 µM in the assay on TK-10 renal. Besides, the GI50 with M14 melanoma is 1.85 µM; in the assay on SK-MEL-5 melanoma, 1.87 µM; with OVCAR-8 ovarian it was 2.23 µM; in the assay with NCI-H522 lung it was 1.56 µM. Besides, the TGI in the assay with IGROV1 ovarian was 8.16 µM; in the assay with HT29 colon, 7.12 µM; in the assay on MOLT-4 leukemia it was 7.3 µM; with SN12C renal, 5.44 µM; in the assay on DU-145 prostate, 5.07 µM; with TK-10 renal, 3.28 µM. Besides, the TGI turned out to be 4.18 µM with M14 melanoma, 3.56 µM in the assay with SK-MEL-5 melanoma, 4.98 µM in the assay with OVCAR-8 ovarian and 3.06 µM in the assay on NCI-H522 lung.

`Nc1nc(N)c(CCCCc2ccc([N+](=O)[O-])cc2)c(N)n1`: the total growth inhibition concentration (TGI) in the assay with IGROV1 ovarian, in the assay on HT29 colon, with MOLT-4 leukemia, with SN12C renal, in the assay with DU-145 prostate and in the assay with TK-10 renal was greater than 100 µM in each case. The TGI in the assay on M14 melanoma, in the assay with SK-MEL-5 melanoma, with OVCAR-8 ovarian and in the assay with NCI-H522 lung was greater than 100 µM each time.

For the compound `O=C1c2ccccc2C(=O)c2c1ccc1c3ccccc3n(-c3ccccc3)c21`, the TGI amounted to 41 µM in the assay on IGROV1 ovarian; 29.2 µM in the assay on HT29 colon; 11.1 µM with MOLT-4 leukemia; 32.3 µM in the assay on SN12C renal; 33.4 µM in the assay on DU-145 prostate; 60.1 µM in the assay with TK-10 renal. The TGI in the assay on M14 melanoma came to 29.8 µM; with SK-MEL-5 melanoma, 29.9 µM; in the assay with OVCAR-8 ovarian, 44.8 µM; with NCI-H522 lung, 32.4 µM.

With `O=C1c2ccccc2-c2cn(Cc3ccccc3)c3cccc(c23)C1c1cccnc1` (stereo not given), the GI50 is 3.41 µM in the assay on IGROV1 ovarian; 1.86 µM in the assay on HT29 colon; 3.2 µM with MOLT-4 leukemia; 3.08 µM with SN12C renal; 4.27 µM in the assay with DU-145 prostate; 20.8 µM with TK-10 renal. The GI50 with M14 melanoma was 3.89 µM; in the assay with SK-MEL-5 melanoma it was 2.42 µM; with OVCAR-8 ovarian, 9.3 µM; with NCI-H522 lung, 2.28 µM. Also, the total growth inhibition concentration (TGI) with IGROV1 ovarian was greater than 50 µM; in the assay on HT29 colon it was greater than 50 µM; with MOLT-4 leukemia, greater than 50 µM; in the assay on SN12C renal it was greater than 50 µM; in the assay on DU-145 prostate, 40.5 µM; in the assay with TK-10 renal, greater than 50 µM. Besides, the concentration for total growth inhibition (TGI) in the assay with M14 melanoma is greater than 50 µM; in the assay with SK-MEL-5 melanoma it was 17.9 µM; with OVCAR-8 ovarian it was greater than 50 µM; in the assay on NCI-H522 lung, 33.4 µM.

Consider `CCOC(=O)c1c(CN2CCCCC2)nc2ccc(Cl)cc2c1-c1ccccc1`, for which the GI50 in the assay on IGROV1 ovarian is 24 µM; in the assay on HT29 colon, 18.8 µM; with MOLT-4 leukemia, 6.5 µM; with SN12C renal it was 20.3 µM; in the assay with DU-145 prostate, 32.5 µM; with TK-10 renal it was 42.7 µM. The GI50 with M14 melanoma was 24.6 µM; in the assay with SK-MEL-5 melanoma, 17.4 µM; with OVCAR-8 ovarian, 35.4 µM; with NCI-H522 lung, 19.2 µM. Besides, the TGI in the assay on IGROV1 ovarian was greater than 100 µM; with HT29 colon, 54.2 µM; in the assay with MOLT-4 leukemia it was 27.9 µM; in the assay with SN12C renal it was 45 µM; in the assay with DU-145 prostate it was greater than 100 µM; in the assay with TK-10 renal, greater than 100 µM. In addition, the TGI in the assay with M14 melanoma was 72.7 µM; in the assay on SK-MEL-5 melanoma it was 32.8 µM; with OVCAR-8 ovarian it was greater than 100 µM; in the assay with NCI-H522 lung, 53 µM.

Consider `CC1=C(\C=C/C(C)=C/C=C/C(C)=C/C=C/C=C(C)\C=C\C=C(C)/C=C/C2=C(C)CCCC2(C)C)C(C)(C)CCC1`, for which the TGI in the assay on IGROV1 ovarian, in the assay on HT29 colon, with MOLT-4 leukemia, with SN12C renal, with DU-145 prostate and with TK-10 renal was greater than 100 µM each time. The TGI with M14 melanoma, in the assay with SK-MEL-5 melanoma, in the assay with OVCAR-8 ovarian and in the assay with NCI-H522 lung was greater than 100 µM in each case.

The values are drawn from PubChem BioAssay (NCI).
